Measured values: US6632794B1, “Insulin-like growth factor agonist molecules” (Genentech, Inc., priority 1997, dated 2003)
Values belong to the substance of their own block, whether it stands above or below them.

What was measured:
mouse 3T3 cells = test: ^3H-thymidine incorporation into mouse 3T3 cells; type: cell-based
Protocol: Assay 2: Increase in Cell Number of Mouse 3T3 Cells
The activity of the IGF mutant was also measured in a bioassay for the activity of IGF-I on DNA synthesis and cell replication. In this assay mouse 3T3 cells are cultured, and the IGF mutant or IGF-I is added, followed by tritiated ^3H-thymidine. The amount of ^3H-thymidine incorporated is a measure of the replication of DNA and thus of cell replication.

male Wistar rats = test: IV injection into conscious normal rats, plasma glucose and insulin; type: in vivo, rat; settings: 100 μg IV; for fall in blood glucose / plasma insulin response: after 10 mins
Protocol: Seven week old male Wistar rats (240-250 g, Charles Rivers Laboratories, Hollister, Calif.) were anesthetized with KETAMINE/XYLAZINE™ anesthesia and the right jugular vein was cannulated with a silicone rubber cannula that was developed for chronic blood sampling. Clark et al., J. Endocrinol., 111: 27-35 (1986). Following a two- to three-day recovery period, two basal blood samples were taken at −10 and −5 minutes, the test substances administered to the rats by IV injection, and then blood samples collected after 5, 10, 20, 30, 45, 60, and 120 minutes, and the plasma was immediately separated by centrifugation. The glucose and insulin concentrations were subsequently determined either by a coupled hexokinase procedure using a Chem 1A serum chemistry analyzer or, in the later case, a rat insulin RIA kit (Linco Research, Inc., St. Charles, Mo.).
Statistical comparisons were made by an analysis of variance (ANOVA) with a Duncan's Multiple Range test. A p value of <0.05 was considered as being statistically significant. All data are represented as the mean±SEM.
Two treatment groups, with five rats per group, were dosed IV with either (Leu^24,Ala^31)hIGF-I (100 μg) or PBS.
The rats in three treatment groups, with 4-5 rats per group, were dosed IV with either (Leu^24,Ala^31)hIGF-I (100 μg) or rhIGF-I (100 μg) and a control group was given PBS.

hypophysectomized rats = test: Long-term administration to hypophysectomized rats; type: in vivo, rat; settings: one week
Source text: Young female SD rats were hypophysectomized at Taconic Laboratories and delivered several days later. The rats were then weighed frequently and those whose weight increased or decreased by more than 7 grams between 2 and 3 weeks following hypophysectomy were excluded from the study. Twenty-five rats were grouped randomly into five groups based on their body weight, and then randomly assigned to cages, with four rats per cage. The animals were allowed ad libitum access to food and water and housed in a room controlled for temperature and lighting.
1) Excipient pump, excipient injections;
2) (Leu^24,Ala^31)hIGF-I (10 μg/day, by SC minipump), excipient injections;
3) (Leu^24,Ala^31)hIGF-I (50 μg/day, by SC minipump), excipient injections;
4) Recombinant human GH (NUTROPIN™ brand from Genentech, Inc., 20 μg/day, by SC injection, two injections each of 10 μg/day), excipient minipump; or
5) (Leu^24,Ala^31)hIGF-I (50 μg/day, by SC minipump) plus recombinant human GH (20 μg/day, by SC injection, two injections each of 10 μg/day).
The rats were dosed for one week.
The mutant (Leu^24,Ala^31)hIGF-I was administered by osmotic minipumps (ALZET 2001™, Alza, Palo Alto, Calif.), which were placed in a subcutaneous tunnel in the dorsal neck region of the rats while they were anesthetized with KETAMINE™/XYLAZINE™ anesthesia. The pumps were filled with solutions so that the calculated daily dose was 50 μg or 10 μg, assuming that 24 μl of solution was delivered each day for one week.
Recombinant human GH was administered for one week by twice daily SC injections of 10 μg in 100 μl volume.
Body weights were measured daily in the morning. At the end of the week of dosing the animals were anesthetized via CO2 and exsanguinated via cardiac puncture. The remaining blood was allowed to clot and serum was separated and stored for further analysis.
Spleen, thymus, heart, liver, kidney, and perirenal fat were removed and weighed. The tibia was removed and fixed in neutral buffered formalin for histological measurement of epiphyseal plate width.
Serum chemistries were measured on an automated Chem I analyzer. Serum insulin concentration was measured using an RIA Kit supplied by Linco, Inc. To measure the IGF-I concentrations the serum was extracted using acid ethanol and the supernatant diluted to neutrality and assayed for IGF-I by RIA.
Tibia were sectioned longitudinally, stained with Toluene Blue, and mounted on microscope slides. The tibial epiphyseal plate width was measured using an ocular micrometer attached to a microscope.
Data were analyzed statistically by analysis of variance using one factor and two factor ANOVA.

[1] = test system: endogenous IGFBPs present in human serum; test: Displacement of ^125I-IGF-I from IGFBPs in human serum (FPLC-SEC); type: binding; settings: normal human serum, IGF mutant 40 μg/ml, mean ± SD, n = 3
Protocol: To determine if the IGF mutant could displace IGF-I from endogenous IGFBPs present in human serum, the following experiment was performed. Radiolabeled rhIGF-I (^125-IGF-I) was incubated with normal human serum samples at a concentration of 33 ng/ml for 16 hr at 4° C. to allow for the formation of […] complexes. […] The samples (n=3) were then analyzed by FPLC size-exclusion chromatography (FPLC-SEC) to determine the relative size and amounts of the ^125I-IGF-I:IGFBP complexes.
Data are expressed as cpm per fraction (n=1).
This Example tests an IGFBP-3-specific peptide, BP15, for its ability to block the binding of ^125I-IGF-I in human serum. Human serum was incubated with ^125I-IGF-I±the peptide and the amount of tracer bound to IGFBPs via size-exclusion chromatography was measured.

[2] = molecular target: T1, Type 1 IGF receptor (derived from placental membranes) (Homo sapiens, UniProt P08069); settings: Type 1 IGF receptor from placental membranes; Bayne et al.; read-out: half maximal inhibition of ligand binding; cited from earlier work
T1 construct: Type 1 IGF receptor (derived from placental membranes); host or cells: placental membranes

L7 murine fibroblasts = settings: Bayne et al.; cited from earlier work

T1 sequence (P08069 31-736 limits assumed): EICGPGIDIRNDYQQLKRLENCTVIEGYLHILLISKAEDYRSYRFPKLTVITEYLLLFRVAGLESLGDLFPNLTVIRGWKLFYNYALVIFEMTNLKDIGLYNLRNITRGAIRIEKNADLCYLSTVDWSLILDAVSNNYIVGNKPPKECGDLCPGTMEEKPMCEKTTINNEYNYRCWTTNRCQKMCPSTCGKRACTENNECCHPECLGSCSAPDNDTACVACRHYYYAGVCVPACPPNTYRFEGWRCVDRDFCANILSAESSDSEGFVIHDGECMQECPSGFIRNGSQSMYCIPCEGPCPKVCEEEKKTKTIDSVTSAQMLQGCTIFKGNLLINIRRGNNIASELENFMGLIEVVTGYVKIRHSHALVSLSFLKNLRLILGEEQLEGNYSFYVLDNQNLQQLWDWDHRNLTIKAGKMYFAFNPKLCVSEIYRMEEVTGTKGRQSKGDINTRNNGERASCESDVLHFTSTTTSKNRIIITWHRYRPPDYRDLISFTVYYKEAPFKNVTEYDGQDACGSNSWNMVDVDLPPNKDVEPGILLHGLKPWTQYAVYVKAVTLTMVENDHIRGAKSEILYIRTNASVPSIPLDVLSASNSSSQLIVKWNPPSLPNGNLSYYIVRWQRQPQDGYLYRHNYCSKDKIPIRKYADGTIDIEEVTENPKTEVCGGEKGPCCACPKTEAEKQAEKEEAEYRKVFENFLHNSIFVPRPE
T1 sequence (P08069 741-1367 partner limits assumed): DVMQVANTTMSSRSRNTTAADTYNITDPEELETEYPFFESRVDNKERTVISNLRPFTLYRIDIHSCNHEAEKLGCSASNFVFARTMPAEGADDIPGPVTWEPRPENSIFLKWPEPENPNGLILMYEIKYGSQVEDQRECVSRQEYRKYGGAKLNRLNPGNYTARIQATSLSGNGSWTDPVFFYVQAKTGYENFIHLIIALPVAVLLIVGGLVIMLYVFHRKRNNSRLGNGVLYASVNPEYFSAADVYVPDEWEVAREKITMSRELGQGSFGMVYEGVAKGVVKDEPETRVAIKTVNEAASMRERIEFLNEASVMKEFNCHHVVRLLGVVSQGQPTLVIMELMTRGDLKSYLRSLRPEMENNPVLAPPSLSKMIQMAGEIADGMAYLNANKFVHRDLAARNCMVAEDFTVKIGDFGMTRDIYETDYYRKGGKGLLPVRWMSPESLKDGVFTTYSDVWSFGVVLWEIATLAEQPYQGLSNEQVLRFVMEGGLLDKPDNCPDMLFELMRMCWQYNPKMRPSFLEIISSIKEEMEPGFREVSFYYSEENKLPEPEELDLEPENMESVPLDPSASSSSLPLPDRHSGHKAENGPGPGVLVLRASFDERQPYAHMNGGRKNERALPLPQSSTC

- Free (˜7 kDa) ^125I-IGF-I, percent of total radioactivity ([1]; 0 hr): 9.3 ± 2.3%
- ^125I-IGF-I in ˜44 kDa range, percent of total radioactivity ([1]; 0 hr): 60.5 ± 0.8%
- ^125I-IGF-I in ˜150 kDa range, percent of total radioactivity ([1]; 0 hr): 30.3 ± 1.4%
- Free (˜7 kDa) ^125I-IGF-I, percent of total radioactivity ([1]; 0.5 hr): 38.2 ± 3.7%
- ^125I-IGF-I in ˜44 kDa range, percent of total radioactivity ([1]; 0.5 hr): 37.3 ± 2.9%
- ^125I-IGF-I in ˜150 kDa range, percent of total radioactivity ([1]; 0.5 hr): 24.4 ± 0.8%
- Free (˜7 kDa) ^125I-IGF-I, percent of total radioactivity ([1]; 3 hr): 61.9 ± 2.6%
- ^125I-IGF-I in ˜44 kDa range, percent of total radioactivity ([1]; 3 hr): 27.8 ± 1.5%
- ^125I-IGF-I in ˜150 kDa range, percent of total radioactivity ([1]; 3 hr): 10.3 ± 1.1%
- Free (˜7 kDa) ^125I-IGF-I, percent of total radioactivity ([1]; 24 hr): 81.9 ± 0.5%
- ^125I-IGF-I in ˜44 kDa range, percent of total radioactivity ([1]; 24 hr): 12.6 ± 0.4%
- ^125I-IGF-I in ˜150 kDa range, percent of total radioactivity ([1]; 24 hr): 5.5 ± 0.1%
Substance: (Leu^24,Ala^31)hIGF-I
- ^3H-thymidine incorporation (mouse 3T3 cells): no activity
- plasma insulin levels, % of that of the control group (male Wistar rats; Study One): 25%
- time plasma insulin remained depressed (male Wistar rats; Study One): 60 min
- fall in blood glucose (male Wistar rats; Study One): brief but statistically significant
- time plasma insulin remained depressed (male Wistar rats; Study Two): ≥ 120 min
- fall in blood glucose (male Wistar rats; Study Two): small but statistically significant fall in blood glucose
- plasma insulin response (male Wistar rats; Study Two): fall in insulin concentrations of a similar magnitude and degree of statistical significance
- blood levels of endogenous rat IGF-I (hypophysectomized rats): lower
- total IGF-I (rat and human) in blood (hypophysectomized rats; IGF agonist 10 μg): not a rise in total IGF
- body weight gain (hypophysectomized rats; IGF agonist 10 μg/day SC minipump): mean weight gain that was numerically smaller than that of the control group
- total IGF-I (rat and human) in blood (hypophysectomized rats; IGF agonist 50 μg alone or with GH): rise in total IGF-I
- body weight gain (hypophysectomized rats; IGF agonist 50 μg/day SC minipump, hGH 20 μg/day SC, or both): only a small amount of activity
- absolute thymus weight (hypophysectomized rats; IGF agonist 50 μg/day, hGH 20 μg/day, or both): increased
- absolute and relative heart weight (hypophysectomized rats; IGF agonist 10 and 50 μg, hGH 20 μg/day, or combination): significant increase in the absolute and the relative size of the heart
- absolute spleen weight (hypophysectomized rats; IGF mutant 10 and 50 μg/day, hGH 20 μg/day, or hGH plus 50 μg/day): increased by both doses
- bone growth (tibial epiphyseal plate width) (hypophysectomized rats; low-dose mutant (10 μg/day)): did not increase bone growth
- bone growth (tibial epiphyseal plate width) (hypophysectomized rats; mutant 50 μg/day alone or with rhGH): significant increase in bone growth
- IC50 [2]: 2 µM
- reduction in activity, ^3H thymidine incorporation (L7 murine fibroblasts): more than 200 fold

Substance: IGF-I: native-sequence recombinant human insulin-like growth factor-I (Genentech)
- ^3H-thymidine incorporation (mouse 3T3 cells): increased thymidine incorporation in a dose-related manner
- time plasma insulin remained depressed (male Wistar rats; Study Two): 120 min
- fall in blood glucose (male Wistar rats; Study Two): brief but statistically significant fall in blood glucose
- plasma insulin response (male Wistar rats; Study Two): decreased significantly
